For this test, the target named is T1, BRM (Homo sapiens, UniProt P51531).
T1 construct: In-Cell Western Screen of BRM Degradation in SW1573 Cells; endogenous in cells; host or cells: SW1573
Briefly: In-cell Western screen of BRM degradation in SW1573 cells (Dmax and DC50). The settings on record: BRM degradation, SW1573 cells; for DC50: read-out: DC50; for Dmax: read-out: Dmax (% degraded). It is filed as cell-based. Put shortly:
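Adherent SW1573 cultures exposed to test compounds for 18-20 h were processed for in-cell Western after PFA fixation and detergent permeabilization. BRM degradation was reported as Dmax and DC50.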

The structures appear in SMILES notation.

T1 sequence (P51531 whole entry): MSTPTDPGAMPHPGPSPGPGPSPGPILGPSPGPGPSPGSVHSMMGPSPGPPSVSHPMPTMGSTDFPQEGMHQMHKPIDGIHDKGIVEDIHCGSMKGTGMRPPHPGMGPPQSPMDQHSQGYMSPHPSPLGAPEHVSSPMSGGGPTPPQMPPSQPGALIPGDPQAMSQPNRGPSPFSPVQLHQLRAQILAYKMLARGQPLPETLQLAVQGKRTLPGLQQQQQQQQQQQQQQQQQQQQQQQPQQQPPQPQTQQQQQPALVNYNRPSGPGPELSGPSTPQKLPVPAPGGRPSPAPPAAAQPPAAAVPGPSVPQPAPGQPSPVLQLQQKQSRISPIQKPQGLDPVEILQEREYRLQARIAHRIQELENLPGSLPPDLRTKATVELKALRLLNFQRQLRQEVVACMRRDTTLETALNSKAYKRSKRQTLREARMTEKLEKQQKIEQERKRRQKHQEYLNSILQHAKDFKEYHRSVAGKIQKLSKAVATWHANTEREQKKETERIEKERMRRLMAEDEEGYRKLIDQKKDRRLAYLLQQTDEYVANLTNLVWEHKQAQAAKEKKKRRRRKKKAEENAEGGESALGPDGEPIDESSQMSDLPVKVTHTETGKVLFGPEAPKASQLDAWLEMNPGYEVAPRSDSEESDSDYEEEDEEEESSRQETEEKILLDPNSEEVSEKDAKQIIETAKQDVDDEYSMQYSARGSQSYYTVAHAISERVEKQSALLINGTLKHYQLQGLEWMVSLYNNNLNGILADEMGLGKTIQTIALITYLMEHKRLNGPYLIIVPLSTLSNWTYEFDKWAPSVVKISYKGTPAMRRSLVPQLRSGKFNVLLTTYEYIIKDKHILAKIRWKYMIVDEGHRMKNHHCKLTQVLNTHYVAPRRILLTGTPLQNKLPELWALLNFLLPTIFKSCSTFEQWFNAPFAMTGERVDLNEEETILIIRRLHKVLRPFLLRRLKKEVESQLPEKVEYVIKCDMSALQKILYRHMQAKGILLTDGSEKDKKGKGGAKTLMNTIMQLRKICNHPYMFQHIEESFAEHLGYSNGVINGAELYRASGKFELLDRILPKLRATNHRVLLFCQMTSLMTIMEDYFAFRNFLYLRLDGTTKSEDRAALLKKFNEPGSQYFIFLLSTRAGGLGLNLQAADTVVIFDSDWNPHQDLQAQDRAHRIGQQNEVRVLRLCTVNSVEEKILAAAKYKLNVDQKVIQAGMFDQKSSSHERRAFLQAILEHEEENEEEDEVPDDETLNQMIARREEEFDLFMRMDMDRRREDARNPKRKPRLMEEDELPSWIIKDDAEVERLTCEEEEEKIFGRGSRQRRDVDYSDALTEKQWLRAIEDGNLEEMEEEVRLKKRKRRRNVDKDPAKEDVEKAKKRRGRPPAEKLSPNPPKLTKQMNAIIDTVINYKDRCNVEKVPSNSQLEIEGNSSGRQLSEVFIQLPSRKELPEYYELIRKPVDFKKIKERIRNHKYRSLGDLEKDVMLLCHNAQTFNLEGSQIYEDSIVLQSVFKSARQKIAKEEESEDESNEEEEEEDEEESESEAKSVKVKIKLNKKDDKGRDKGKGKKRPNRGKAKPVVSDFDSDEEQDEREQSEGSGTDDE

`Cc1ncsc1-c1ccc([C@H](C)NC(=O)[C@@H]2C[C@@H](O)CN2C(=O)[C@@H](c2cc(N3CCC4(CCN(C[C@H]5C[C@H](Oc6cc(N7C8CCC7CN(c7cc(-c9ccccc9O)nnc7N)C8)ccn6)C5)CC4)CC3)no2)C(C)C)cc1` [compound 646, (2S,4R)-1-((2R)-2-(3-(9-(((1r,3R)-3-((4-(3-(3-amino-6-(2-hydroxyphenyl)pyridazin-4-yl)-3,8-diazabicyclo[3.2.1]octan-8-yl)pyridin-2-yl)oxy)cyclobutyl)methyl)-3,9-diazaspiro[5.5]undecan-3-yl)isoxazol-5-yl)-3-methylbutanoyl)-4-hydroxy-N-((S)-1-(4-(4-methylthiazol-5-yl)phenyl)ethyl)pyrrolidine-2-carboxamide]: the DC50 is under 2.5 nM and the Dmax was over 75%. As to `Cc1ncsc1-c1ccc([C@H](C)NC(=O)[C@@H]2C[C@@H](O)CN2C(=O)[C@H](c2cc(N3CCC4(CCN(C[C@H]5C[C@H](Oc6cc(N7C8CCC7CN(c7cc(-c9ccccc9O)nnc7N)C8)ccn6)C5)CC4)CC3)no2)C(C)C)cc1` [compound 647, (2S,4R)-1-((2S)-2-(3-(9-(((1r,3S)-3-((4-(3-(3-amino-6-(2-hydroxyphenyl)pyridazin-4-yl)-3,8-diazabicyclo[3.2.1]octan-8-yl)pyridin-2-yl)oxy)cyclobutyl)methyl)-3,9-diazaspiro[5.5]undecan-3-yl)isoxazol-5-yl)-3-methylbutanoyl)-4-hydroxy-N-((S)-1-(4-(4-methylthiazol-5-yl)phenyl)ethyl)pyrrolidine-2-carboxamide], the half-maximal degradation concentration (DC50) was over 30 nM. As for `Cc1ncsc1-c1ccc([C@H](C)NC(=O)[C@@H]2C[C@@H](O)CN2C(=O)[C@@H](c2cc(N3CCC(CN4CCC(O[C@H]5C[C@H](N6CCC(C(C)n7cc(-c8cc(-c9ccccc9O)nnc8N)cn7)CC6)C5)CC4)CC3)no2)C(C)C)cc1` (stereo partly drawn) [compound 648, (2S,4R)-1-((2R)-2-(3-(4-((4-((1r,3r)-3-(4-(1-(4-(3-amino-6-(2-hydroxyphenyl)pyridazin-4-yl)-1H-pyrazol-1-yl)ethyl)piperidin-1-yl)cyclobutoxy)piperidin-1-yl)methyl)piperidin-1-yl)isoxazol-5-yl)-3-methylbutanoyl)-4-hydroxy-N-((S)-1-(4-(4-methylthiazol-5-yl)phenyl)ethyl)pyrrolidine-2-carboxamide], the DC50 is under 2.5 nM and the Dmax was over 75%. Consider `Cc1ncsc1-c1ccc([C@H](C)NC(=O)[C@@H]2C[C@@H](O)CN2C(=O)[C@H](c2cc(N3CCC4(CC3)CC(CN3CCC(O[C@H]5C[C@H](Oc6cc(N7C8CCC7CN(c7cc(-c9ccccc9O)nnc7N)C8)ccn6)C5)CC3)C4)no2)C(C)C)cc1` [compound 649, (2S,4R)-1-((2S)-2-(3-(2-((4-((1r,3r)-3-((4-(3-(3-amino-6-(2-hydroxyphenyl)pyridazin-4-yl)-3,8-diazabicyclo[3.2.1]octan-8-yl)pyridin-2-yl)oxy)cyclobutoxy)piperidin-1-yl)methyl)-7-azaspiro[3.5]nonan-7-yl)isoxazol-5-yl)-3-methylbutanoyl)-4-hydroxy-N-((S)-1-(4-(4-methylthiazol-5-yl)phenyl)ethyl)pyrrolidine-2-carboxamide], for which the DC50 was over 30 nM. Same read-out and setting: the same measure for `Cc1ncsc1-c1ccc([C@H](C)NC(=O)[C@@H]2C[C@@H](O)CN2C(=O)[C@@H](c2cc(N3CCC4(CC3)CC(CN3CCC(O[C@H]5C[C@H](Oc6cc(N7C8CCC7CN(c7cc(-c9ccccc9O)nnc7N)C8)ccn6)C5)CC3)C4)no2)C(C)C)cc1` [compound 650, (2S,4R)-1-((2R)-2-(3-(2-((4-((1r,3r)-3-((4-(3-(3-amino-6-(2-hydroxyphenyl)pyridazin-4-yl)-3,8-diazabicyclo[3.2.1]octan-8-yl)pyridin-2-yl)oxy)cyclobutoxy)piperidin-1-yl)methyl)-7-azaspiro[3.5]nonan-7-yl)isoxazol-5-yl)-3-methylbutanoyl)-4-hydroxy-N-((S)-1-(4-(4-methylthiazol-5-yl)phenyl)ethyl)pyrrolidine-2-carboxamide]: over 30 nM; for `Cc1ncsc1-c1ccc([C@H](C)NC(=O)[C@@H]2C[C@@H](O)CN2C(=O)[C@H](c2cc(N3CCC(CN4CCC(O[C@H]5C[C@H](Oc6cc(N7C8CCC7CN(c7cc(-c9ccccc9O)nnc7N)C8)ccn6)C5)CC4)CC3)no2)C(C)C)cc1F` [compound 651, (2S,4R)-1-((2S)-2-(3-(4-((4-((1r,3r)-3-((4-(3-(3-amino-6-(2-hydroxyphenyl)pyridazin-4-yl)-3,8-diazabicyclo[3.2.1]octan-8-yl)pyridin-2-yl)oxy)cyclobutoxy)piperidin-1-yl)methyl)piperidin-1-yl)isoxazol-5-yl)-3-methylbutanoyl)-N-((S)-1-(3-fluoro-4-(4-methylthiazol-5-yl)phenyl)ethyl)-4-hydroxypyrrolidine-2-carboxamide]: over 30 nM. As to `Cc1ncsc1-c1ccc([C@H](C)NC(=O)[C@@H]2C[C@@H](O)CN2C(=O)[C@@H](c2cc(N3CCC(CN4CCC(O[C@H]5C[C@H](Oc6cc(N7C8CCC7CN(c7cc(-c9ccccc9O)nnc7N)C8)ccn6)C5)CC4)CC3)no2)C(C)C)cc1F` [compound 652, (2S,4R)-1-((2R)-2-(3-(4-((4-((1r,3r)-3-((4-(3-(3-amino-6-(2-hydroxyphenyl)pyridazin-4-yl)-3,8-diazabicyclo[3.2.1]octan-8-yl)pyridin-2-yl)oxy)cyclobutoxy)piperidin-1-yl)methyl)piperidin-1-yl)isoxazol-5-yl)-3-methylbutanoyl)-N-((S)-1-(3-fluoro-4-(4-methylthiazol-5-yl)phenyl)ethyl)-4-hydroxypyrrolidine-2-carboxamide], the DC50 was under 2.5 nM and the Dmax is over 75%. On the same counts, the results for `Cc1ncsc1-c1ccc([C@H](CO)NC(=O)[C@@H]2C[C@@H](O)CN2C(=O)[C@@H](c2cc(N3CCC(CN4CCC(O[C@H]5C[C@H](Oc6cc(N7C8CCC7CN(c7cc(-c9ccccc9O)nnc7N)C8)ccn6)C5)CC4)CC3)no2)C(C)C)cc1` [compound 653, (2S,4R)-1-((2R)-2-(3-(4-((4-((1r,3r)-3-((4-(3-(3-amino-6-(2-hydroxyphenyl)pyridazin-4-yl)-3,8-diazabicyclo[3.2.1]octan-8-yl)pyridin-2-yl)oxy)cyclobutoxy)piperidin-1-yl)methyl)piperidin-1-yl)isoxazol-5-yl)-3-methylbutanoyl)-4-hydroxy-N-((R)-2-hydroxy-1-(4-(4-methylthiazol-5-yl)phenyl)ethyl)pyrrolidine-2-carboxamide] are under 2.5 nM and over 75%. In the case of `CC[C@H](NC(=O)[C@@H]1C[C@@H](O)CN1C(=O)[C@@H](c1cc(N2CCC(CN3CCC(O[C@H]4C[C@H](Oc5cc(N6C7CCC6CN(c6cc(-c8ccccc8O)nnc6N)C7)ccn5)C4)CC3)CC2)no1)C(C)C)c1ccc(-c2scnc2C)cc1` [compound 654, (2S,4R)-1-((2R)-2-(3-(4-((4-((1r,3r)-3-((4-(3-(3-amino-6-(2-hydroxyphenyl)pyridazin-4-yl)-3,8-diazabicyclo[3.2.1]octan-8-yl)pyridin-2-yl)oxy)cyclobutoxy)piperidin-1-yl)methyl)piperidin-1-yl)isoxazol-5-yl)-3-methylbutanoyl)-4-hydroxy-N-((S)-1-(4-(4-methylthiazol-5-yl)phenyl)propyl)pyrrolidine-2-carboxamide], the 50% degradation concentration (DC50) was under 2.5 nM and the Dmax is over 75%. Regarding `Cc1ncsc1-c1ccc([C@H](C)NC(=O)[C@@H]2C[C@@H](O)CN2C(=O)[C@H](c2cc(N3CCCC(CN4CCC(O[C@H]5C[C@H](Oc6cc(N7C8CCC7CN(c7cc(-c9ccccc9O)nnc7N)C8)ccn6)C5)CC4)C3)no2)C(C)C)cc1` (stereo partly drawn) [compound 655, (2S,4R)-1-((2S)-2-(3-(3-((4-((1r,3S)-3-((4-(3-(3-amino-6-(2-hydroxyphenyl)pyridazin-4-yl)-3,8-diazabicyclo[3.2.1]octan-8-yl)pyridin-2-yl)oxy)cyclobutoxy)piperidin-1-yl)methyl)piperidin-1-yl)isoxazol-5-yl)-3-methylbutanoyl)-4-hydroxy-N-((S)-1-(4-(4-methylthiazol-5-yl)phenyl)ethyl)pyrrolidine-2-carboxamide], the DC50 was over 30 nM. Still for that read-out and setting: to `Cc1ncsc1-c1ccc([C@H](C)NC(=O)[C@@H]2C[C@@H](O)CN2C(=O)[C@H](c2cc(N3CCC4(CCCN(C[C@H]5C[C@H](Oc6cc(N7C8CCC7CN(c7cc(-c9ccccc9O)nnc7N)C8)ccn6)C5)C4)CC3)no2)C(C)C)cc1` [compound 659, (2S,4R)-1-((2S)-2-(3-(2-(((1r,3S)-3-((4-(3-(3-amino-6-(2-hydroxyphenyl)pyridazin-4-yl)-3,8-diazabicyclo[3.2.1]octan-8-yl)pyridin-2-yl)oxy)cyclobutyl)methyl)-2,9-diazaspiro[5.5]undecan-9-yl)isoxazol-5-yl)-3-methylbutanoyl)-4-hydroxy-N-((S)-1-(4-(4-methylthiazol-5-yl)phenyl)ethyl)pyrrolidine-2-carboxamide] belongs over 30 nM. In the case of `Cc1ncsc1-c1ccc([C@H](C)NC(=O)[C@@H]2C[C@@H](O)CN2C(=O)[C@@H](c2cc(N3CCC4(CCCN(C[C@H]5C[C@H](Oc6cc(N7C8CCC7CN(c7cc(-c9ccccc9O)nnc7N)C8)ccn6)C5)C4)CC3)no2)C(C)C)cc1` [compound 660, (2S,4R)-1-((2R)-2-(3-(2-(((1r,3R)-3-((4-(3-(3-amino-6-(2-hydroxyphenyl)pyridazin-4-yl)-3,8-diazabicyclo[3.2.1]octan-8-yl)pyridin-2-yl)oxy)cyclobutyl)methyl)-2,9-diazaspiro[5.5]undecan-9-yl)isoxazol-5-yl)-3-methylbutanoyl)-4-hydroxy-N-((S)-1-(4-(4-methylthiazol-5-yl)phenyl)ethyl)pyrrolidine-2-carboxamide], the 50% degradation concentration (DC50) was under 2.5 nM and the Dmax was over 75%.

The term DC50 denotes the concentration at which degradation of the target reaches its halfway point. The term Dmax denotes the largest share of the target that was removed.

(Values after patent US12539292B2, “BRM targeting compounds and associated methods of use” (Arvinas Operations, Inc., priority 2018, dated 2026).)
